Data on five molecules can be found in ChEMBL document CHEMBL5724914, “Linking interpersonal differences in gut microbiota composition and drug biotransformation activity” (2024).

A short description of data set [1]: The drug is tested on Z-030 corresponding to mouse gut metagenome with ENA study accession number: PRJEB37062 and ENA sample accession number: ERS12561829 for biotransformation under anaerobic condition. The drug concentrations were measured over 9 timepoints collected between 0 and 24 hours of incubation by liquid-chromatography-coupled mass spectrometry (LC–MS). The note with it: 2 µM.

Data set [2] can be described thus: The drug is tested on Z-027 corresponding to metagenome with ENA study accession number: PRJEB37062 and ENA sample accession number: ERS12561826 for biotransformation under anaerobic condition. The drug concentrations were measured over 9 timepoints collected between 0 and 24 hours of incubation by liquid-chromatography-coupled mass spectrometry (LC–MS). The note with it: 2 µM.

Data set [3] can be described thus: The drug is tested on Z-022 corresponding to mouse gut metagenome with ENA study accession number: PRJEB37062 and ENA sample accession number: ERS12561821 for biotransformation under anaerobic condition. The drug concentrations were measured over 9 timepoints collected between 0 and 24 hours of incubation by liquid-chromatography-coupled mass spectrometry (LC–MS). The note with it: 2 µM.

The nature of data set [4]: The drug is tested on Z-020 corresponding to rabbit gut metagenome with ENA study accession number: PRJEB37062 and ENA sample accession number: ERS12561819 for biotransformation under anaerobic condition. The drug concentrations were measured over 9 timepoints collected between 0 and 24 hours of incubation by liquid-chromatography-coupled mass spectrometry (LC–MS). The note with it: 2 µM.

The nature of data set [5]: The drug is tested on Z-012 corresponding to metagenome with ENA study accession number: PRJEB37062 and ENA sample accession number: ERS12561812 for biotransformation under anaerobic condition. The drug concentrations were measured over 9 timepoints collected between 0 and 24 hours of incubation by liquid-chromatography-coupled mass spectrometry (LC–MS). To be noted: 2 µM.

Data set [6] is described as follows: The drug is tested on Z-008 corresponding to metagenome with ENA study accession number: PRJEB37062 and ENA sample accession number: ERS12561808 for biotransformation under anaerobic condition. The drug concentrations were measured over 9 timepoints collected between 0 and 24 hours of incubation by liquid-chromatography-coupled mass spectrometry (LC–MS). To be noted: 2 µM.

The nature of data set [7]: The drug is tested on Z-005 corresponding to metagenome with ENA study accession number: PRJEB37062 and ENA sample accession number: ERS12561805 for biotransformation under anaerobic condition. The drug concentrations were measured over 9 timepoints collected between 0 and 24 hours of incubation by liquid-chromatography-coupled mass spectrometry (LC–MS). The note with it: 2 µM.

Data set [8] in a line: The drug is tested on Z-001 corresponding to mouse gut metagenome with ENA study accession number: PRJEB37062 and ENA sample accession number: ERS12561801 for biotransformation under anaerobic condition. The drug concentrations were measured over 9 timepoints collected between 0 and 24 hours of incubation by liquid-chromatography-coupled mass spectrometry (LC–MS). The note with it: 2 µM.

The nature of data set [9]: The drug is tested on WLS-077 corresponding to human gut metagenome with ENA study accession number: PRJEB37062 and ENA sample accession number: ERS12561750 for biotransformation under anaerobic condition. The drug concentrations were measured over 9 timepoints collected between 0 and 24 hours of incubation by liquid-chromatography-coupled mass spectrometry (LC–MS). To be noted: 2 µM.

Data set [10] in a line: The drug is tested on WLS-027 corresponding to human gut metagenome with ENA study accession number: PRJEB37062 and ENA sample accession number: ERS12561744 for biotransformation under anaerobic condition. The drug concentrations were measured over 9 timepoints collected between 0 and 24 hours of incubation by liquid-chromatography-coupled mass spectrometry (LC–MS). To be noted: 2 µM.

The conditions of data set [11]: human gut metagenome, 24 h, 2 µM.
For data set [12] the following is noted: human gut metagenome, 24 h, 2 µM. This is another data set of the same source.
For data set [13] the following is noted: human gut metagenome, 24 h, 2 µM. The source holds these as a separate data set.
The conditions of data set [14]: human gut metagenome, 24 h, 2 µM. This is another data set of the same source.
The conditions of data set [15]: human gut metagenome, 24 h, 2 µM. This is another data set of the same source.
The conditions of data set [16]: human gut metagenome, 24 h, 2 µM. This is another data set of the same source.
The conditions of data set [17]: human gut metagenome, 24 h, 2 µM. The source holds these as a separate data set.
The conditions of data set [18]: human gut metagenome, 24 h, 2 µM. The source holds these as a separate data set.
The conditions of data set [19]: human gut metagenome, 24 h, 2 µM. The source holds these as a separate data set.
For data set [20] the following is noted: human gut metagenome, 24 h, 2 µM. The source holds these as a separate data set.
Further: call rule not given here.

Consider `CCOc1ccccc1OCCN[C@H](C)Cc1ccc(OC)c(S(N)(=O)=O)c1.Cl` [TAMSULOSIN HYDROCHLORIDE], for which the “Bacterial Biotransformation” value in [1], in data set [2], in data set [3], in [4], in data set [5] and in [6] was “Compound NOT metabolized” in each case. For the same molecule, the “Bacterial Biotransformation” value in data set [7], in [8], in data set [9], in data set [10], in data set [11] and in data set [12] was “Compound NOT metabolized” each time. Moreover, the “Bacterial Biotransformation” value is “Compound NOT metabolized” in data set [13]; “Compound NOT metabolized” in [14]; “Compound metabolized” in [15]; “Compound NOT metabolized” in [16]; “Compound NOT metabolized” in [17]; “Compound metabolized” in data set [18]. The “Bacterial Biotransformation” value in data set [19] and in data set [20] was “Compound NOT metabolized” each time.

Regarding `O=C(NC(Cc1cc(=O)[nH]c2ccccc12)C(=O)O)c1ccc(Cl)cc1` (stereo not given) [REBAMIPIDE], the “Bacterial Biotransformation” value in data set [1], in data set [2], in [3], in data set [4], in data set [5] and in data set [6] was “Compound NOT metabolized” throughout. Besides, the “Bacterial Biotransformation” value was “Compound NOT metabolized” in data set [7]; “Compound NOT metabolized” in [8]; “Compound NOT metabolized” in data set [9]; “Compound NOT metabolized” in [10]; “Compound metabolized” in data set [11]; “Compound metabolized” in [12]. Also, the “Bacterial Biotransformation” value is “Compound NOT metabolized” in data set [13]; “Compound metabolized” in data set [14]; “Compound metabolized” in data set [15]; “Compound NOT metabolized” in data set [16]; “Compound NOT metabolized” in [17]; “Compound NOT metabolized” in data set [18]. Moreover, the “Bacterial Biotransformation” value in data set [19] is “Compound NOT metabolized”; in data set [20] it was “Compound metabolized”.

Regarding `COc1ccccc1OCCNCC(O)COc1cccc2[nH]c3ccccc3c12` (stereo not given) [CARVEDILOL], the “Bacterial Biotransformation” value in [1], in data set [2], in data set [3], in data set [4], in data set [5] and in data set [6] was “Compound NOT metabolized” in each case. Also, the “Bacterial Biotransformation” value is “Compound NOT metabolized” in [7]; “Compound NOT metabolized” in data set [8]; “Compound metabolized” in [9]; “Compound metabolized” in [10]; “Compound metabolized” in data set [11]; “Compound metabolized” in [12]. The “Bacterial Biotransformation” value is recorded as “Compound NOT metabolized” in [13]; “Compound NOT metabolized” in data set [14]; “Compound metabolized” in data set [15]; “Compound NOT metabolized” in data set [16]; “Compound metabolized” in data set [17]; “Compound metabolized” in data set [18]. Also, the “Bacterial Biotransformation” value is reported as “Compound NOT metabolized” in data set [19] and “Compound metabolized” in data set [20].

Regarding `Nc1nc(NC2CC2)c2ncn([C@H]3C=C[C@@H](CO)C3)c2n1.Nc1nc(NC2CC2)c2ncn([C@H]3C=C[C@@H](CO)C3)c2n1.O=S(=O)(O)O` [ABACAVIR SULFATE], the “Bacterial Biotransformation” value in data set [1] was “Compound NOT metabolized”; in data set [2], “Compound NOT metabolized”; in data set [3] it was “Compound metabolized”; in data set [4] it was “Compound NOT metabolized”; in [5], “Compound NOT metabolized”; in [6], “Compound NOT metabolized”. The “Bacterial Biotransformation” value is given as “Compound NOT metabolized” in data set [7]; “Compound NOT metabolized” in [8]; “Compound metabolized” in [9]; “Compound NOT metabolized” in data set [10]; “Compound NOT metabolized” in data set [11]; “Compound NOT metabolized” in data set [12]. For the same molecule, the “Bacterial Biotransformation” value is reported as “Compound NOT metabolized” in data set [13]; “Compound metabolized” in [14]; “Compound metabolized” in [15]; “Compound NOT metabolized” in data set [16]; “Compound metabolized” in [17]; “Compound metabolized” in [18]. Besides, the “Bacterial Biotransformation” value in [19] and in data set [20] was “Compound metabolized” each time.

Regarding `OCCN(CCO)c1nc(N2CCCCC2)c2nc(N(CCO)CCO)nc(N3CCCCC3)c2n1` [DIPYRIDAMOLE], the “Bacterial Biotransformation” value in data set [1] is recorded as “Compound NOT metabolized”; in [2], “Compound metabolized”; in data set [3], “Compound metabolized”; in [4], “Compound NOT metabolized”; in data set [5], “Compound NOT metabolized”; in [6], “Compound NOT metabolized”. Also, the “Bacterial Biotransformation” value in [7] is recorded as “Compound metabolized”; in data set [8], “Compound NOT metabolized”; in data set [9] it was “Compound metabolized”; in [10] it was “Compound metabolized”; in data set [11], “Compound metabolized”; in data set [12], “Compound metabolized”. The “Bacterial Biotransformation” value in data set [13], in data set [14], in data set [15], in [16], in [17] and in data set [18] was “Compound metabolized” throughout. For the same molecule, the “Bacterial Biotransformation” value in [19] and in [20] was “Compound NOT metabolized” throughout.
